In patent US11459315B2, “Modulators of methyl modifying enzymes, compositions and uses thereof” (Constellation Pharmaceuticals, Inc., priority 2017, dated 2022) one finds EC50 and IC50 data, which are given here for 28 compounds.

For test [1], the system named is H3K27me3 mark in HeLa cells (EZH2). The experiment in a line: H3K27me3 Alpha Hela Assay (AlphaLISA). In kind it is cell-based. The settings on record: HeLa cells, 72 hrs, read-out: EZH2 Cell H3K27me3 Alpha HeLa (EC50 K27me3). Put shortly:
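HeLa cells (1,000/well) treated with ten 3-fold compound doses for 72 h at 37 °C; lysates extracted and H3K27me3 detected by AlphaLISA with anti-K27me3 acceptor beads, biotinylated anti-H3 (3 nM) and streptavidin donor beads. EC50 from DMSO-normalized dose-response curves; duplicate plate assessed viability.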
In general terms: Alpha assays give light when donor and acceptor beads are brought close together.

The target in another test is PRC2 containing wt EZH2 (Homo sapiens (Human), UniProt Q15910). Nature of the test: EZH2 biochemical assay (IC50), 3H-SAM incorporation into biotinylated H3 peptide. Put shortly:
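Activity was measured as ³H-methyl transfer to a biotinylated H3K27me1 peptide over 18-22 h at room temperature, with capture on streptavidin flash plates. The 30 pM wt-EZH2 PRC2 complex was first pre-incubated 3-5 h with compound, 450 nM SAM/450 nM ³H-SAM and 2 µM H3K27me3 activator (pH 8.5, 0.8% DMSO). Four-parameter fits gave IC50.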

Setting [2] is: EZH2 (IC50), 30 pM PRC2 containing wt EZH2; 3-5 h pre-incubation.
Where [3] appears, read: 30 pM PRC2 containing wt EZH2; 3-5 h pre-incubation; read-out: EZH2 (IC50).

Where two headings read alike, the source gives them in different places.

PRC2 containing wt EZH2, sequence (Q15910 whole entry): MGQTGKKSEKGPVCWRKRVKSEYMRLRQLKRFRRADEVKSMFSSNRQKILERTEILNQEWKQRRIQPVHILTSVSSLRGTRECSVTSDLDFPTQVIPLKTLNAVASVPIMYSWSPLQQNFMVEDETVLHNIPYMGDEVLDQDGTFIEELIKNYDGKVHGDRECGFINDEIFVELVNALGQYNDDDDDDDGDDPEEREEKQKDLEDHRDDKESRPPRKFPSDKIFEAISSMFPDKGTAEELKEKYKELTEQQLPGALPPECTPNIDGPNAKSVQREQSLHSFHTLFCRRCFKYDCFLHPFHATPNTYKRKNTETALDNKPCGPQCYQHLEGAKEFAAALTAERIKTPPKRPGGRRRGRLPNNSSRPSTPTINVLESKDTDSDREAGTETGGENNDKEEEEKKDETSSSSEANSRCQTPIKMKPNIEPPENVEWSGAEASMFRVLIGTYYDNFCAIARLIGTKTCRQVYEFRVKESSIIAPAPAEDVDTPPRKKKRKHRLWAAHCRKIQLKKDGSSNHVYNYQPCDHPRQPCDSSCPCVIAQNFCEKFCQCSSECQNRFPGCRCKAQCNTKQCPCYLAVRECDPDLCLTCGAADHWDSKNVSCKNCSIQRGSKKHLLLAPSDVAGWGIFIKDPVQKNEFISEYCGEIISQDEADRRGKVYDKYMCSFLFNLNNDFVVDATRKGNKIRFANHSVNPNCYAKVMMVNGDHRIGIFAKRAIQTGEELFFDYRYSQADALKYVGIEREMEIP
PRC2 containing wt EZH2, sequence (O75530 whole entry partner): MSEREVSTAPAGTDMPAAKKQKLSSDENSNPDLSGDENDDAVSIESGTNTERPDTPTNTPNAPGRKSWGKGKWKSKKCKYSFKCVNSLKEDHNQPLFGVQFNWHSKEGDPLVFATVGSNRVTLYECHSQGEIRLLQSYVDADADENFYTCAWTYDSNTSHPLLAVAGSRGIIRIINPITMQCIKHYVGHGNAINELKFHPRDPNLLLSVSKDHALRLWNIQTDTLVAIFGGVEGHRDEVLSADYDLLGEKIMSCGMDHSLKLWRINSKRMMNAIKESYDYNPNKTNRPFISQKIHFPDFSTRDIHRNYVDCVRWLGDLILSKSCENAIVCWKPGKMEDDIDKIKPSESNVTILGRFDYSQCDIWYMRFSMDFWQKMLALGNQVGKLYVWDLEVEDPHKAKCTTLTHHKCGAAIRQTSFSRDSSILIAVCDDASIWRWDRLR
PRC2 containing wt EZH2, sequence (Q15022 whole entry partner): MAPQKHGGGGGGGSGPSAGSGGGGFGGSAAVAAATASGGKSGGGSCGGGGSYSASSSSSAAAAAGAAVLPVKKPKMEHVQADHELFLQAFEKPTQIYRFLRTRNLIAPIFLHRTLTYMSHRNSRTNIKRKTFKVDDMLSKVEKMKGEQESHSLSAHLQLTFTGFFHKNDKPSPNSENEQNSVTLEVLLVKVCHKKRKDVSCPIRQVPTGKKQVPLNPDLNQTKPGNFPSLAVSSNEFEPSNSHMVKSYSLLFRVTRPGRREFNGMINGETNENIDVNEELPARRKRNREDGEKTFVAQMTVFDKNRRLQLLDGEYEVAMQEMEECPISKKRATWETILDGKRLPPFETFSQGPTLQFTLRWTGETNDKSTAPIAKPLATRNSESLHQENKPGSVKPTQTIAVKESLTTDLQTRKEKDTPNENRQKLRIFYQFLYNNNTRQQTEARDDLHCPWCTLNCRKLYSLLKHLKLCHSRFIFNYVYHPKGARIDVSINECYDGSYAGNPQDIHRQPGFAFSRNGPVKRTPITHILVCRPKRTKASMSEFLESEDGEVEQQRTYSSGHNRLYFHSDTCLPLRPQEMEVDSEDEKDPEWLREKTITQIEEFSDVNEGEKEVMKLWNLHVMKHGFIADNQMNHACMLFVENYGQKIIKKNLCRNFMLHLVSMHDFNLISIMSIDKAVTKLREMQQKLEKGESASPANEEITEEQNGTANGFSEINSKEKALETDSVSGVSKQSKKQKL
PRC2 containing wt EZH2, sequence (Q09028 whole entry partner): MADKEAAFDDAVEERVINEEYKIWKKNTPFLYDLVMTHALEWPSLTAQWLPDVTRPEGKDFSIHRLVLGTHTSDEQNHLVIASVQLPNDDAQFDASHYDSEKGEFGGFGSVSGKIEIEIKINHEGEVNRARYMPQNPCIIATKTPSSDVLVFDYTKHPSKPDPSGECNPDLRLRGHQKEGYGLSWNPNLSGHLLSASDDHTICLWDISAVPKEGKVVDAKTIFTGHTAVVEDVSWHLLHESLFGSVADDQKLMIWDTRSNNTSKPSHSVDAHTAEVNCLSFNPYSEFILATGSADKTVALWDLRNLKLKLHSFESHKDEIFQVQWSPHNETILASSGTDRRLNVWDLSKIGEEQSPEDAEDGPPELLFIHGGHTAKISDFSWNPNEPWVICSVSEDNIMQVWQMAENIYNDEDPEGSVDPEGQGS
PRC2 containing wt EZH2, sequence (Q6ZN18 whole entry partner): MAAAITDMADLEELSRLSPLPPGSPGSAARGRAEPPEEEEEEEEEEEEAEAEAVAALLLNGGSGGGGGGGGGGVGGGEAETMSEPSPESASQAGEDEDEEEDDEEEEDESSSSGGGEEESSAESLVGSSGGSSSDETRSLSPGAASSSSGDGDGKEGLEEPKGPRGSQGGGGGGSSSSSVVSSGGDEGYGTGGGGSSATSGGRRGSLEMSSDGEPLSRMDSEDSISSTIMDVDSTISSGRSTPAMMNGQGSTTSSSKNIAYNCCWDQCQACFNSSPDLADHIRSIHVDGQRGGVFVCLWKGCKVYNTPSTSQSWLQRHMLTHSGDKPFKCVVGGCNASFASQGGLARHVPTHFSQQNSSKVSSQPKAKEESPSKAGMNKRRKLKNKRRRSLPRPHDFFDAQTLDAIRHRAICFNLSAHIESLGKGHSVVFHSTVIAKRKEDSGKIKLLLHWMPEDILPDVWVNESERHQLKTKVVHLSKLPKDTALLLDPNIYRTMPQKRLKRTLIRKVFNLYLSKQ

Regarding `CSc1cc(C)[nH]c(=O)c1CNC(=O)c1c(C)n([C@H](C)C2CCC(F)(F)CC2)c2ccccc12` [Example 45, (R)-1-(1-(4,4-difluorocyclohexyl)ethyl)-2-methyl-N-((6-methyl-4-(methylthio)-2-oxo-1,2-dihydropyridin-3-yl)methyl)-1H-indole-3-carboxamide], the EC50 (usually the concentration that produces a half-maximal response) in test [1] (Homo sapiens, HeLa, 72 h) was < 0.01 µM. Moreover, the half-inhibitory concentration (IC50) (as a rule, the concentration that inhibits the measured activity by half) at PRC2 containing wt EZH2 (setting [2]) is < 0.0005 µM.

In the case of `CSc1cc(C)[nH]c(=O)c1CNC(=O)c1c(C)n([C@H](C)C2CCC(NC3COC3)CC2)c2ncccc12` (single isomer, unassigned) [62 (isomer 1)], the EC50 in test [1] lay within 0.01 to 0.1 µM. Besides, the IC50 at PRC2 containing wt EZH2 (setting [3]) is < 0.0005 µM.

As for `CCSc1cc(C)[nH]c(=O)c1CNC(=O)c1c(C)n([C@H](C)C2CCN(CC(F)(F)F)CC2)c2ccccc12` [Example 86, (R)-N-((4-(ethylthio)-6-methyl-2-oxo-1,2-dihydropyridin-3-yl)methyl)-2-methyl-1-(1-(1-(2,2,2-trifluoroethyl)piperidin-4-yl)ethyl)-1H-indole-3-carboxamide], in test [1] (Homo sapiens, HeLa, 72 h), the EC50 fell in the range of 0.01 to 0.1 µM. On PRC2 containing wt EZH2 (setting [2]), this compound came in with an IC50 of 0.0005 to 0.005 µM.

With `CSc1cc(C)[nH]c(=O)c1CNC(=O)c1c(C)n([C@H](C)[C@H]2CC[C@H](N3CC(OC(F)F)C3)CC2)c2ncccc12` (single isomer, unassigned) [27 (isomer 1)], in test [1] (Homo sapiens, HeLa, 72 h), the EC50 was < 0.01 µM. Further, the IC50 at PRC2 containing wt EZH2 (setting [3]) is < 0.0005 µM.

As to `CSc1cc(C)[nH]c(=O)c1CNC(=O)c1c(C)n([C@H](C)C2CCC(NC(C)(C)C)CC2)c2ccccc12` (stereo partly drawn) [Example 61, (R)-1-(1-(4-(tert-butylamino)cyclohexyl)ethyl)-2-methyl-N-((6-methyl-4-(methylthio)-2-oxo-1,2-dihydropyridin-3-yl)methyl)-1H-indole-3-carboxamide], in test [1] (Homo sapiens, HeLa, 72 h), the EC50 lay in the range of 0.01 to 0.1 µM. Also, the IC50 at PRC2 containing wt EZH2 (setting [3]) was < 0.0005 µM.

Turning to `CSc1cc(C)[nH]c(=O)c1CNC(=O)c1c(C)n([C@H](C)C2CCC(N3CC(N(C)C)C3)CC2)c2ccccc12` (single isomer, unassigned) [148 (isomer 2)], the EC50 in test [1] is 0.01 to 0.1 µM. Besides, the IC50 on PRC2 containing wt EZH2 (setting [3]) is < 0.0005 µM.

Take `CSc1cc(C)[nH]c(=O)c1CNC(=O)c1c(C)n([C@H](C)C2CCC(N3CC(F)(C4CC4)C3)CC2)c2ncccc12` (stereo partly drawn) [Example 157, 1-((R)-1-(4-(3-cyclopropyl-3-fluoroazetidin-1-yl)cyclohexyl)ethyl)-2-methyl-N-((6-methyl-4-(methylthio)-2-oxo-1,2-dihydropyridin-3-yl)methyl)-1H-pyrrolo[2,3-b]pyridine-3-carboxamide]: the EC50 in test [1] (Homo sapiens, HeLa, 72 h) was in the range of 0.01 to 0.1 µM. In addition, on PRC2 containing wt EZH2 (setting [3]), the IC50 is < 0.0005 µM.

For the compound `CSc1cc(C)[nH]c(=O)c1CNC(=O)c1c(C)n([C@H](C)C2CCC(NC3(C(F)(F)F)COC3)CC2)c2ccccc12` (single isomer, unassigned) [Example 130], the EC50 in test [1] (Homo sapiens, HeLa, 72 h) was < 0.01 µM. Further, the 50% inhibitory concentration (IC50) at PRC2 containing wt EZH2 (setting [3]) is < 0.0005 µM.

Consider `CSc1cc(C)[nH]c(=O)c1CNC(=O)c1c(C)n([C@H](C)C2CCC(N3CC(OCC(F)F)C3)CC2)c2ncccc12` (stereo partly drawn) [Example 116, 1-((R)-1-(4-(3-(2,2-difluoroethoxy)azetidin-1-yl)cyclohexyl)ethyl)-2-methyl-N-((6-methyl-4-(methylthio)-2-oxo-1,2-dihydropyridin-3-yl)methyl)-1H-pyrrolo[2,3-b]pyridine-3-carboxamide], for which the EC50 in test [1] (Homo sapiens, HeLa, 72 h) is < 0.01 µM. Moreover, the IC50 on PRC2 containing wt EZH2 (setting [3]) is < 0.0005 µM.

Turning to `CSc1cc(C)[nH]c(=O)c1CNC(=O)c1c(C)n([C@H](C)C2CCC(OC(=O)C(C)C)CC2)c2ccccc12` (single isomer, unassigned) [144 (isomer 2)], the EC50 in test [1] was < 0.01 µM. For the same compound, the IC50 on PRC2 containing wt EZH2 (setting [3]) was < 0.0005 µM.

In the case of `CO[C@@H]1CN(C2CCC([C@@H](C)n3c(C)c(C(=O)NCc4c(SC)cc(C)[nH]c4=O)c4cccnc43)CC2)C[C@H]1F` (single isomer, unassigned) [104 (isomer 2)], the EC50 in test [1] was > 0.1 µM. Further, the IC50 at PRC2 containing wt EZH2 (setting [3]) is 0.0005 to 0.005 µM.

For `CSc1cc(C)[nH]c(=O)c1CNC(=O)c1c(C)n([C@H](C)C2CCNC[C@H]2F)c2ccccc12` (stereo partly drawn) [Example 38, 1-((1R)-1-((3S)-3-fluoropiperidin-4-yl)ethyl)-2-methyl-N-((6-methyl-4-(methylthio)-2-oxo-1,2-dihydropyridin-3-yl)methyl)-1H-indole-3-carboxamide], the EC50 in test [1] (Homo sapiens, HeLa, 72 h) lay in the range of 0.01 to 0.1 µM. The IC50 against PRC2 containing wt EZH2 (setting [2]) is < 0.0005 µM.

Regarding `CSc1cc(C)[nH]c(=O)c1CNC(=O)c1c(C)n([C@H](C)C2CCC(N3CC(OC4CC4)C3)CC2)c2ncc(F)cc12` (single isomer, unassigned) [28 (isomer 2)], the concentration giving a half-maximal response (EC50) in test [1] lay within 0.01 to 0.1 µM. At PRC2 containing wt EZH2 (setting [3]), the IC50 is < 0.0005 µM.

Regarding `CSc1cc(C)[nH]c(=O)c1CNC(=O)c1c(C)n([C@H](C)C2CCC(NC3(C(F)(F)F)COC3)CC2)c2ncccc12` (single isomer, unassigned) [163 (isomer 1)], the EC50 in test [1] (Homo sapiens, HeLa, 72 h) was < 0.01 µM. The IC50 on PRC2 containing wt EZH2 (setting [3]) was < 0.0005 µM.

`CSc1cc(C)[nH]c(=O)c1CNC(=O)c1c(C)n([C@H](C)C2CCC(N3CC(F)(F)C3)CC2)c2ccccc12` (single isomer, unassigned) [23 (isomer 1)]: in test [1] (Homo sapiens, HeLa, 72 h), the EC50 is 0.01 to 0.1 µM. Further, at PRC2 containing wt EZH2 (setting [2]), the half-inhibitory concentration (IC50) is 0.0005 to 0.005 µM.

Consider `CSc1cc(C)[nH]c(=O)c1CNC(=O)c1c(C)n([C@H](C)C2CCC(N3CC34COC4)CC2)c2ncccc12` (single isomer, unassigned) [139 (isomer 1)], for which the EC50 in test [1] (Homo sapiens, HeLa, 72 h) lay in the range of 0.01 to 0.1 µM. The IC50 at PRC2 containing wt EZH2 (setting [2]) was < 0.0005 µM.

As to `CSc1cc(C)[nH]c(=O)c1CNC(=O)c1c(C)n([C@H](C)C2CCN(CC(C)(C)O)CC2)c2ccccc12` [Example 11, (R)-1-(1-(1-(2-hydroxy-2-methylpropyl)piperidin-4-yl)ethyl)-2-methyl-N-((6-methyl-4-(methylthio)-2-oxo-1,2-dihydropyridin-3-yl)methyl)-1H-indole-3-carboxamide], the EC50 in test [1] (Homo sapiens, HeLa, 72 h) fell in the range of 0.01 to 0.1 µM. Also, the IC50 against PRC2 containing wt EZH2 (setting [2]) was < 0.0005 µM.

For the compound `CSc1cc(C)[nH]c(=O)c1CNC(=O)c1c(C)n([C@H](C)C2CCN(C)C[C@H]2F)c2ccccc12` (stereo partly drawn) [Example 43, 1-((1R)-1-((3S)-3-fluoro-1-methylpiperidin-4-yl)ethyl)-2-methyl-N-((6-methyl-4-(methylthio)-2-oxo-1,2-dihydropyridin-3-yl)methyl)-1H-indole-3-carboxamide], the EC50 in test [1] (Homo sapiens, HeLa, 72 h) is 0.01 to 0.1 µM. Besides, the IC50 against PRC2 containing wt EZH2 (setting [2]) was < 0.0005 µM.

Take `CSc1cc(C)[nH]c(=O)c1CNC(=O)c1c(C)n([C@H](C)C2OCC(N(C)C)CO2)c2ccccc12` (single isomer, unassigned) [7 (isomer 2)]: the EC50 in test [1] is < 0.01 µM. Further, on PRC2 containing wt EZH2 (setting [3]), the IC50 is < 0.0005 µM.

Consider `CCOC1CN(C2CCC([C@@H](C)n3c(C)c(C(=O)NCc4c(SC)cc(C)[nH]c4=O)c4cccnc43)CC2)C1` (single isomer, unassigned) [91 (isomer 2)], for which, in test [1], the EC50 is 0.01 to 0.1 µM. Also, the IC50 at PRC2 containing wt EZH2 (setting [3]) is < 0.0005 µM.

In the case of `CSc1cc(C)[nH]c(=O)c1CNC(=O)c1c(C)n([C@H](C)C2CCC(OC(=O)C(C)C)CC2)c2ccccc12` (single isomer, unassigned) [144 (isomer 1)], in test [1] (Homo sapiens, HeLa, 72 h), the half-maximal effective concentration (EC50) is < 0.01 µM. In addition, the IC50 at PRC2 containing wt EZH2 (setting [3]) was < 0.0005 µM.

In the case of `CSc1cc(C)[nH]c(=O)c1CNC(=O)c1c(C)n([C@H](C)C2CCC(OC(C)=O)CC2)c2ccccc12` (single isomer, unassigned) [134 (isomer 2)], the EC50 in test [1] was < 0.01 µM. At PRC2 containing wt EZH2 (setting [3]), the IC50 was < 0.0005 µM.

`CSc1cc(C)[nH]c(=O)c1CNC(=O)c1c(C)n([C@H](C)C2CCN(CC(F)(F)F)CC2)c2ncncc12` [Example 73, (R)-6-methyl-N-((6-methyl-4-(methylthio)-2-oxo-1,2-dihydropyridin-3-yl)methyl)-7-(1-(1-(2,2,2-trifluoroethyl)piperidin-4-yl)ethyl)-7H-pyrrolo[2,3-d]pyrimidine-5-carboxamide]: the EC50 in test [1] (Homo sapiens, HeLa, 72 h) was < 0.01 µM. In addition, the half-maximal inhibitory concentration (IC50) against PRC2 containing wt EZH2 (setting [2]) is < 0.0005 µM.

In the case of `CCOC1CN(C2CCC([C@@H](C)n3c(C)c(C(=O)NCc4c(SC)cc(C)[nH]c4=O)c4cccnc43)CC2)C1` (single isomer, unassigned) [91 (isomer 1)], the EC50 in test [1] (Homo sapiens, HeLa, 72 h) is < 0.01 µM. Besides, the 50% inhibitory concentration (IC50) at PRC2 containing wt EZH2 (setting [3]) is < 0.0005 µM.

As for `CSc1cc(C)[nH]c(=O)c1CNC(=O)c1c(C)n([C@H](C)CO)c2ccccc12` [Example 31, (R)-1-(1-hydroxypropan-2-yl)-2-methyl-N-((6-methyl-4-(methylthio)-2-oxo-1,2-dihydropyridin-3-yl)methyl)-1H-indole-3-carboxamide], the concentration for a half-maximal effect (EC50) in test [1] (Homo sapiens, HeLa, 72 h) is > 0.1 µM. For the same compound, the IC50 on PRC2 containing wt EZH2 (setting [3]) was > 0.005 µM.

In the case of `CSc1cc(C)[nH]c(=O)c1CNC(=O)c1c(C)n([C@H](C)C2CCC(C)(O)CC2)c2ccccc12` (single isomer, unassigned) [22 (isomer 2)], the EC50 in test [1] is < 0.01 µM. Further, the IC50 on PRC2 containing wt EZH2 (read-out: EZH2 (IC50); 30 pM PRC2 containing wt EZH2; 3-5 h pre-incubation) was < 0.0005 µM.

For `CSc1cc(C)[nH]c(=O)c1CNC(=O)c1c(C)n([C@H](C)C2CCC(N(C)C3(C)COC3)CC2)c2ccccc12` (single isomer, unassigned) [3 (isomer 1)], the EC50 in test [1] (Homo sapiens, HeLa, 72 h) is < 0.01 µM. Further, the IC50 at PRC2 containing wt EZH2 (setting [3]) was < 0.0005 µM.

As for `COc1cccc2c1c(C(=O)NCc1c(SC)cc(C)[nH]c1=O)c(C)n2[C@H](C)C1CCN(CC(F)(F)F)CC1` [Example 101, (R)-4-methoxy-2-methyl-N-((6-methyl-4-(methylthio)-2-oxo-1,2-dihydropyridin-3-yl)methyl)-1-(1-(1-(2,2,2-trifluoroethyl)piperidin-4-yl)ethyl)-1H-indole-3-carboxamide], in test [1] (Homo sapiens, HeLa, 72 h), the EC50 is 0.01 to 0.1 µM. In addition, the IC50 at PRC2 containing wt EZH2 (setting [3]) was in the range of 0.0005 to 0.005 µM.
